Assay [1] deals with SB.mhdgc-1. Put plainly: viability at highest tested concentration (MAXR) relative to DMSO; higher = less cytotoxic. The following applies: SB.mhdgc-1 (hereditary c.1380delA CDH1 gastric cancer). In short, it runs like this:
(§1)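 The values represent viability normalised to DMSO, expressed at the highest concentration or as trapezoidal area under the curve. Cells were hereditary or sporadic patient-derived gastric cancer cells, 500 in 5 μL medium per 1536 well. They were dosed with 23 nL of compound in DMSO by pintool over 11 threefold dilutions, with each compound's top concentration recorded. CellTiter-Glo was applied 48 h later for 30 min at room temperature before luminescence was read on a ViewLux.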

Assay [2] deals with SB.msgc-1. The assay is described as above. Particulars: SB.msgc-1 (sporadic gastric cancer). Put shortly: as §1
Assay [3] concerns SB.mhdgc-1. Put plainly: area under the dose-response curve of % viability (trapezoidal, 11 doses) (% viability x log10 concentration); higher = less cytotoxic. The following applies: SB.mhdgc-1 (hereditary c.1380delA CDH1 gastric cancer). Put shortly: as §1
Assay [4] relates to SB.msgc-1. Described as above. The following applies: SB.msgc-1 (sporadic gastric cancer). Put shortly:
as §1

Each structure is given as a SMILES string.

The values below come from the supplement of paper PMC5412046.

In general, viability refers to a read-out of living cells in per cent, often relative to untreated cells. For the compound `Nc1ncnc2c1c(-c1cccc(OCc3ccccc3)c1)cn2C1CC(CN2CCC2)C1` (stereo unspecified) [NVP-AEW541] (top concentration 46.0829 µM), the viability in the assay on SB.mhdgc-1 [1] is 44.9%; with SB.msgc-1 [2], 55.9%. Moreover, the “area under the dose-response curve” value in the assay with SB.mhdgc-1 [3] worked out at 482; in the assay on SB.msgc-1 [4], 484.

As to `CCOc1cc(CC(=O)N[C@@H](CC(C)C)c2ccccc2N2CCCCC2)ccc1C(=O)O` [Repaglinide] (top concentration 46.0829 µM), the viability in the assay with SB.mhdgc-1 [1] amounted to 114%; with SB.msgc-1 [2], 119%. In addition, the entries for the “area under the dose-response curve” value with SB.mhdgc-1 [3] and with SB.msgc-1 [4] were 559 and 567, respectively.

Regarding `C=CCc1cccc(/C=N/NC(=O)CN2CCN(Cc3ccccc3)CC2)c1O` [PAC-1] (top concentration 46.0829 µM), the viability with SB.mhdgc-1 [1] came to 13.1%; in the assay on SB.msgc-1 [2] it was 20.4%. The “area under the dose-response curve” value in the assay with SB.mhdgc-1 [3] came out at 521; with SB.msgc-1 [4], 445.

On to `CN(C[C@@H]1COCCO1)[S+]([O-])(=O)NC2=CC3=C(C=C2)\C=C/C4=C(C=C(C=N4)C5=C[N](C)N=C5)C3=O` [MK-2461] (top concentration 46.0829 µM), for which the viability came out at 90.3% in the assay with SB.mhdgc-1 [1] and 76.8% with SB.msgc-1 [2]. The “area under the dose-response curve” value in the assay on SB.mhdgc-1 [3] amounted to 564; in the assay with SB.msgc-1 [4], 470.

For `O=C(O)CSCC(=O)NC1CCSC1=O` (stereo unspecified) [Erdosteine] (top concentration 46.0829 µM), the viability came out at 143% with SB.mhdgc-1 [1] and 112% in the assay on SB.msgc-1 [2]. For the same compound, the results for the “area under the dose-response curve” value in the assay on SB.mhdgc-1 [3] and in the assay with SB.msgc-1 [4] were 591 and 547, respectively.

As for `COc1cc2nccc(Oc3ccc(NC(=O)C4(C(=O)Nc5ccc(F)cc5)CC4)cc3)c2cc1OC` [Cabozantinib] (top concentration 46.0829 µM), the viability was found to be 51.9% with SB.mhdgc-1 [1] and 41.3% with SB.msgc-1 [2]. Moreover, the results for the “area under the dose-response curve” value with SB.mhdgc-1 [3] and with SB.msgc-1 [4] were 418 and 446, respectively.

For the compound `CN1C(=O)\C(=C/C2=C1N=C(NC3CCOCC3)N=C2)OC4=C(F)C=C(F)C=C4` [R-1487] (top concentration 46.0829 µM), the viability in the assay on SB.mhdgc-1 [1] was found to be 81%; in the assay on SB.msgc-1 [2], 61.9%. In addition, the “area under the dose-response curve” value in the assay with SB.mhdgc-1 [3] turned out to be 530; with SB.msgc-1 [4], 500.

Turning to `COC\1=C(/OC)C(=O)\C(=C(C)/C1=O)CCCCCCCCCCO` [Idebenone] (top concentration 46.0829 µM), the figures for the viability in the assay with SB.mhdgc-1 [1] and with SB.msgc-1 [2] were 103% and 101%, respectively. For the same compound, the “area under the dose-response curve” value was found to be 566 in the assay on SB.mhdgc-1 [3] and 532 in the assay with SB.msgc-1 [4].

Take `CO[C@H]1C[C@@H]2CC[C@@H](C)[C@@](O)(O2)C(=O)C(=O)N2CCCC[C@H]2C(=O)O[C@H]([C@H](C)C[C@@H]2CC[C@@H](OC(=O)C(C)(CO)CO)[C@H](OC)C2)CC(=O)[C@H](C)/C=C(\C)[C@@H](O)[C@@H](OC)C(=O)[C@H](C)C[C@H](C)/C=C/C=C/C=C/1C` [Temsirolimus] (top concentration 46.0829 µM): the viability came out at 12.6% in the assay with SB.mhdgc-1 [1] and 57% with SB.msgc-1 [2]. The “area under the dose-response curve” value with SB.mhdgc-1 [3] worked out at 346; in the assay with SB.msgc-1 [4] it was 475.

On to `[O-]C(=O)C1=C(C(=C(Cl)C(=C1Cl)Cl)Cl)C/2=C/3\C=C(I)/C(=O)/C(=C3OC4=C2C=C(I)C(=C4I)[O-])I` [Rose Bengal disodium] (top concentration 46.0829 µM), for which the viability in the assay on SB.mhdgc-1 [1] was 48.9%; with SB.msgc-1 [2], 61%. The “area under the dose-response curve” value is 471 in the assay with SB.mhdgc-1 [3] and 492 in the assay with SB.msgc-1 [4].

Consider `CN(CC#C)C/C1=C/C2=CC=CC=C2OC3=CC=CC=C13` [Omigapil] (top concentration 46.0829 µM), for which the values for the viability with SB.mhdgc-1 [1] and with SB.msgc-1 [2] were 78.2% and 60.7%, respectively. The “area under the dose-response curve” value came out at 481 in the assay on SB.mhdgc-1 [3] and 476 in the assay with SB.msgc-1 [4].

Turning to `Cc1c[nH]c(-c2cnc(NCCNc3ccc(C#N)cn3)nc2-c2ccc(Cl)cc2Cl)n1` (top concentration 46.0829 µM), the viability with SB.mhdgc-1 [1] is 45.1%; in the assay on SB.msgc-1 [2], 41.5%. The “area under the dose-response curve” value with SB.mhdgc-1 [3] worked out at 338; with SB.msgc-1 [4] it was 415.

`OC1=CC2=C(C(=O)\C=C(/O2)C3=CC=CC=C3)C(=C1O)O` [Baicalein] (top concentration 46.0829 µM): the figures for the viability in the assay on SB.mhdgc-1 [1] and with SB.msgc-1 [2] were 97% and 75.8%, respectively. In addition, the “area under the dose-response curve” value in the assay with SB.mhdgc-1 [3] is 566; in the assay on SB.msgc-1 [4], 523.

In the case of `CC(=O)N(C)C1(c2ccccc2)CCN(CCC[C@]2(c3ccc(Cl)c(Cl)c3)CCCN(C(=O)c3ccccc3)C2)CC1` [Osanetant] (top concentration 46.0829 µM), the viability amounted to 3.99% in the assay on SB.mhdgc-1 [1] and 15.8% with SB.msgc-1 [2]. Further, the “area under the dose-response curve” value stood at 468 in the assay on SB.mhdgc-1 [3] and 469 in the assay on SB.msgc-1 [4].

Take `CN(C)NC(=O)CCC(=O)O` [Daminozide] (top concentration 46.0829 µM): the viability in the assay on SB.mhdgc-1 [1] was 100%; with SB.msgc-1 [2] it was 88%. Moreover, the “area under the dose-response curve” value in the assay on SB.mhdgc-1 [3] turned out to be 518; in the assay on SB.msgc-1 [4] it was 498.

As to `N[S+](=O)([O-])OC[C@@H]1C[C@@H](n2ccc3c(N[C@H]4CCc5ccccc54)ncnc32)C[C@@H]1O` [MLN-4924] (top concentration 46.0829 µM), the viability in the assay on SB.mhdgc-1 [1] was 69.4%; with SB.msgc-1 [2], 37.5%. For the same compound, the “area under the dose-response curve” value was 536 with SB.mhdgc-1 [3] and 400 in the assay with SB.msgc-1 [4].

In the case of `CC(=O)Oc1cc2c(s1)CCN(C(C(=O)C1CC1)c1ccccc1F)C2.Cl` (stereo unspecified) [Prasugrel] (top concentration 46.0829 µM), the viability was found to be 63.9% in the assay on SB.mhdgc-1 [1] and 59% in the assay with SB.msgc-1 [2]. Further, the “area under the dose-response curve” value with SB.mhdgc-1 [3] is 417; in the assay with SB.msgc-1 [4] it was 452.

Consider `CCOC(=O)[C@H](CCc1ccccc1)N[C@H]1CCc2ccccc2N(CC(=O)O)C1=O` [Benzapril] (top concentration 46.0829 µM), for which the viability worked out at 2.05% with SB.mhdgc-1 [1] and 2.71% in the assay with SB.msgc-1 [2]. In addition, the results for the “area under the dose-response curve” value in the assay with SB.mhdgc-1 [3] and in the assay on SB.msgc-1 [4] were 459 and 499, respectively.

As for `COc1ccc(C(C)=O)c(O)c1` [Paeonol] (top concentration 46.0829 µM), the viability in the assay with SB.mhdgc-1 [1] was 57%; in the assay with SB.msgc-1 [2] it was 105%. For the same compound, the “area under the dose-response curve” value in the assay with SB.mhdgc-1 [3] was 545; in the assay on SB.msgc-1 [4], 566.
